Measurements reported in US20230218577A1, “USE OF HEAT SHOCK PROTEIN INHIBITORS FOR THE TREATMENT OF NEURODEVELOPMENTAL DISORDERS” (The Children's Medical Center Corporation, priority 2020, published 2023).

Assays:
[1] = system: IGF-IRβ, pS6 in wild-type cortical neurons; assay: Proteasomal inhibition experiment, Western blot in wild-type cortical neurons; format: cell-based, rat; settings: 4 μM 17-AGG alone, 24 hrs at DIV20
Protocol: Hippocampi and cortexes from 18-day-old rat embryos (Charles River CD1) were isolated under the microscope and collected in Hank's Balanced Salt Solution containing 10 mM MgCl2, 1 mM kynurenic acid, 10 mM HEPES and penicillin/streptomycin. After 5 min dissociation at 37° C. in 30 U/ml of papain, neurons were mechanically triturated and plated in Neurobasal (NB) medium containing B27 supplement, 2 mM L-glutamine, penicillin/streptomycin and primocin (NB/B27). Biochemical analysis was performed on cortical cultures plated at 1×10^6 cells/well onto six-well plates. Immunofluorescent analysis was performed on hippocampal cultures plated at 20×10^3 cells/well onto 96-well plates. All plates were coated with 20 μg/ml poly-D-lysine (PDL).
Stocks of drugs were freshly diluted in NB media before performing each experiment. The same amount of vehicle was used as vehicle-only control. For dose response curves serial dilutions were freshly made in NB media by a manual multichannel pipette using compound dilution plates.
Protein extracts were lysed in 1×SDS (22 mM Tris-HCl pH 6.8, 4% Glycerol, 0.8% SDS, 1.6% β-mercaptoethanol, bromphenol blue) sample buffer, heated to 95° C. for 5 min and stored frozen. Before being subjected to discontinuous gel electrophoresis, equal amounts of all protein lysates were verified by Coomassie gel staining. For immunoblotting, equal amounts of protein lysates were subjected to SDS-PAGE, transferred to Immobilon-P Millipore and incubated in LI-COR blocking solution at RT for 2 hrs. Primary and secondary antibodies were diluted in LI-COR blocking solution to the appropriate concentrations. LI-COR IRDye secondary antibodies were used. All images were acquired using the LI-COR Odyssey Classic imager and associated Image Studio Lite analysis software (version 5.2.5). Quantification of protein expression was performed by densitometry scans of immunoblots using LI-COR Odyssey imaging system.

[2] = system: hspB1 mRNA in Tsc2-sh neurons; assay: qPCR of hspB1 mRNA in Tsc2-sh neurons; format: cell-based, rat; settings: 50 nM between DIV9-13
Protocol: Tsc2-sh neurons were treated with 17-AGG and it was observed that increased hspB1 expression was reversed by the same dosing scheme that prevented cilia loss (50 nM between DIV9-13) (FIGS. 6A-D). To determine whether a similar dysregulation is present in the brains of TSC patients, the gene expression data from cortical tubers and unaffected brain tissue (Martin et al., The genomic landscape of tuberous sclerosis complex; Nat Commun 8, 15816 (2017)) was examined.
Total RNA was prepared with the RNA kit (Zimo Research) following the instructions of the manufacturer and quantified by a spectrophotometer. A total of 1 μg of poly(A) mRNA was used for reverse transcription using the Reverse Transcriptase (BIO-RAD). Real-time PCRs were performed using Power SYBG Green PCR Master Mix (Applied Biosystems). All quantitative PCR (qPCR) reactions were performed in triplicate and normalized against glyceraldehyde-3-phosphate dehydrogenase (GAPDH). Analysis was performed using QuantStudio™ 3 Real-Time PCR System (Thermo Fisher Scientific). The qPCR cycle was: 95° C. for 10 min followed by 40 cycles at 95° C. for 15 sec and 60° C. for 1 min.

Q: Which results are given for C=CCNC1=C2C[C@@H](C)C[C@H](OC)[C@H](O)[C@@H](C)/C=C(\C)[C@H](OC(N)=O)[C@@H](OC)C=C/C=C(\C)C(=O)NC(=CC1=O)C2=O [17-AGG, 3 S,5S,6R,7S,8E,10R,11S,12E,14E)-21-(allylamino)-6-hydroxy-5,11-dimethoxy-3,7,9,15-tetramethyl-16,20,22-trioxo-17-azabicyclo[16.3.1]docosa-8,12,14,18,21-pentaen-10-yl] carbamate]?
A: IGF-IRβ levels [1]: reduced; increased hspB1 expression [2]: reversed
